Patent US6627641B1, “Antimalarial naphthylisoquinoline alkaloids and pharmaceutical compositions and medical uses thereof” (The United States of America as represented by the …, priority 1994, dated 2003)
Converted amounts (≈) assume the structure as drawn.

Key:
[1] = test system: P. berghei (Anka); experiment: In vitro 3H-hypoxanthine incorporation test with P. berghei (Anka); type: cell-based, Plasmodium berghei; conditions: Anka strain
Method: (§1) In vitro testing with P. falciparum was as follows. Each compound was dissolved in DMSO at a concentration of 20 mg ml^−1. These solutions were further diluted with physiological saline to obtain a stock solution of 500 μg ml^−1. Each test substance was applied in a series of seven, 4-fold dilutions (maximum concentrations 50 or 5 μg ml^−1). Each compound was tested in 6-fold repeats. Chloroquine was tested similarly, as a positive control.
(§2) The test protocol was performed in vitro, based upon the method of Desjardins, et al. (Antimicrobial Agents Chemother., 16, 710-715, 1979). The parasites (200 μl of a suspension with initial parasitemia of 0.5% and hematocrit of 1.5%) were incubated for 24 h in microtitre plates (Falcon MicroTest III) in hypoxanthine-free medium in the presence of 25 μl of test solution. The plates contained a negative control (6 wells with non-parasitized RBC's, no drug) and a positive control (6 wells with parasitized RBC's no drug). Thereafter, 25 μl of ^3H-hypoxanthine solution (Amersham) was added (0.5 μCi well ^−1), and the parasites were incubated for a further period of 18 h. Each well was harvested with a Cell Harvester (Nunc). The filter papers were dried for 2 h at 52° C., and their radioactivity was measured by liquid scintillation counting in Optiscint HiSafe (LKB Pharmacia).
(§3) The mean results, obtained as counts per min (cpm), were expressed as percentages of incorporation or growth inhibition. The sigmoid dose-response curve was then linearized by probit analysis with the aid of software provided by IWONL (Gent), adapted by G. Timperman and used to derive the IC50 values.
For experiments with P. berghei (Anka strain), the parasites were maintained, and the in vitro tests performed essentially the same as above, except for the following modification. In the case of tests using P. berghei, the parasites were incubated in the same conditions as for P. falciparum (above) except that the incubations were started immediately in the presence of the ^3H-hypoxanthine and for 24 hour total duration (i.e., no delay in the addition of the ^3H-hypoxanthine). As before, the incorporated radioactivity was used as a-measure for parasite growth.

[2] = test system: P. falciparum (NF54 strain, clone A149); experiment: In vitro 3H-hypoxanthine incorporation test with P. falciparum NF 54; type: cell-based, Plasmodium falciparum; conditions: NF 54, clone A149; six repeats; max. concentration 50 or 5 μg/ml
Method: Continuous in vitro cultures of asexual erythrocytic stages of P. falciparum (strain NF 54/64, clone A1A9) were maintained following essentially the method of Trager and Jensen (Science, 193, 673-675, 1976) at 37° C. under an atmosphere of 5% CO2, 5% O2, and 90% N2. The host cells were human erythrocytes (A or O Rh+). The culture medium was RPMI 1640 (Gibco), containing HEPES (BDH; 4.57 gL^−1), glucose (Sigma; 1.54 gL^−1), 5% NaHCO3 (Merck; 34.78 mlL^−1), and gentamycin (Merck; 8.70 mlL^−1) supplemented with 10% human plasma (A Rh+). Parasites were subinoculated every 3-4 days with initial conditions of 1% parasitemia and 1% hematocrit.
as §1, §2, §3

[3] = test system: Plasmodium berghei (Anka strain); experiment: In vivo antimalarial test in OF1 mice inoculated with P. berghei; conditions: for Parasitemia (%) at day 4 / Parasitemia (%) at day 10: average (95% CI)
Method: Outbred, female, six-week-old OF1 mice (six mice per group treated and nontreated [control]) were inoculated intraperitoneally on day 0 with 10^6 P. berghei (Anka strain) blood forms. Two hours later, they were administered orally 50 mg/kg of dioncopeltine A or dioncophylline B. A second, third, and fourth treatment (50 mg/kg each) was given after 24, 48 and 72 h, respectively (days 1, 2, and 3). […] The parasitemia (%) in the control (not drug-treated) group was 3.50 (range 3.02-3.97; N=6). In the dioncopeltine A treated group, the parasitemia was 0.03 (range 0.01-0.06; N=6); in the dioncophylline B treated group, the parasitemia was […] (range 0.66-3.07; N=6).
The in vivo antimalarial testing was performed as described above, except that more doses and different treatment schedules were employed, as described in Tables 3 and 4.

[4] = test system: P. falciparum (K1 strain); experiment: In vitro 3H-hypoxanthine incorporation test with chloroquine-resistant P. falciparum K1; type: cell-based, Plasmodium falciparum
Method: Selected compounds were also tested against drug-resistant parasites. The method was the same as above except for the following modifications. The parasite used was the chloroquine-resistant strain, K1, maintained essentially according to Desjardins, et al. (supra, 1979). The culture medium was RPMI-1640 containing TES (Sigma; 7.64 gL^−1), glucose (BDH; 1.67 gL^−1), NaHCO3 (BDH; 1.94 gL^−1), and gentamycin (Nicholas; 30 mgL^−1) supplemented with 10% human serum (A RH+). Parasites were subinoculated every 3-4 days with initial conditions of 1% parasitemia and 2.5% hematocrit. For the testing, small aliquots of test material were dissolved in 20 μl EtOH and RPMI 1640 to give solutions of 1 or 10 mg ml^−1. Each was applied in a series of twelve, […] dilutions (final […] ranging from 50 to 1.19×10^−3 μg ml^−1). Chloroquine diphosphate (Sigma) was used in the same experiments as a reference and also in twelve, 4-fold dilutions (final concentrations 2×10^−5-1.19×10^−12M). Each compound was tested in duplicate.
Testing was performed in vitro based upon the method of Desjardins, et al (supra, 1979), as modified by O'Neill, et al. (Planta Med., 51, 394-399, 1985) and Ekong, et al. (Biochem. Pharmacol., 40, 297-301, 1990). The parasites (50 μl initial parasitemia of 1%, hematocrit of 5%) were incubated for 24 h in microtitre plates (Nunc) in normal (not hypoxanthine-depleted) medium in the presence of 50 μl of test solution. Controls were set up in each test by preparing 12-24 wells with non-parasitized RBC's and no test solution and 12-24 wells with parasitized RBC's and no test compound. Thereafter, 5 μl all of ^3H-hypoxanthine (Amersham) were added (0.2 μCi well ^−1), and the parasites incubated for a further period of 18 h. Each well was harvested with a Cell Harvester (Skatron). Glass fibre filters were dried briefly. Radioactivity was measured by liquid scintillation counting in Ecoscint (National Diagnostics).
The results obtained as cpm were expressed as percentages of incorporation of growth inhibition. The dose-related part of the sigmoidal curves obtained were linearized by regression analysis with the aid of software developed by S. Grant (I.SHTM) and used to calculate the IC50 values.

[5] = 50 mg/kg/d oral, 1 day of treatment
[6] = 50 mg/kg/d oral, 2 days of treatment
[7] = 50 mg/kg/d oral, 3 days of treatment
[8] = 50 mg/kg/d oral, 4 days of treatment
[9] = oral treatment with 4×50 mg/kg/d

COc1cc(C)c(-c2ccc(O)c3c2C[C@@H](C)N[C@@H]3C)c2cccc(O)c12 [Dioncophylline C]
IC50 P. berghei, Anka [1]: 0.015 µg/mL (≈ 0.0413 µM)
IC50 P. falciparum NF54 strain [2]: 0.005 µg/mL (≈ 0.0138 µM)
Parasitemia (%) at day 4 ([3]; 3.125 mg/kg/d oral, days 0-3): 5.36 (3.96 − 6.75) %
Parasitemia (%) at day 4 ([3]; 6.25 mg/kg/d oral, days 0-3): 4.42 (2.77 − 6.06) %
Parasitemia (%) at day 4 ([3]; 12.5 mg/kg/d oral, days 0-3): 3.36 (2.35 − 4.37) %
Parasitemia (%) at day 10 ([3]; 12.5 mg/kg/d oral, days 0-3): 26.91 (0.00 − 60.36) %
Parasitemia (%) at day 4 ([3]; 25 mg/kg/d oral, days 0-3): 0.62 (0.00 − 1.34) %
Parasitemia (%) at day 10 ([3]; 25 mg/kg/d oral, days 0-3): 29.82 (11.20 − 48.43) %
Parasitemia (%) at day 4 [3, 5]: 0.02 (0.00 − 0.05) %
Parasitemia (%) at day 10 [3, 5]: 7.87 (0.00 − 23.92) %
Parasitemia (%) at day 4 [3, 6]: 0.01 (0.00 − 0.02) %
Parasitemia (%) at day 10 [3, 6]: 0.41 (0.00 − 1.38) %
Number of OF1 negative (neg) at day 10 ([3]; 50 mg/kg/d oral, 2 days of treatment, n = 5): (2 0F1 neg)
Parasitemia (%) at day 4 [3, 7]: 0.00 (0.00 − 0.00) %
Parasitemia (%) at day 10 [3, 7]: 0.003 (0.000 − 0.012) %
Number of OF1 negative (neg) at day 10 ([3]; 50 mg/kg/d oral, 3 days of treatment, n = 6): (5 0F1 neg)
Parasitemia (%) at day 4 [3, 8]: 0.00 (0.00 − 0.00) %
Parasitemia (%) at day 10 [3, 8]: 0.00 (0.00 − 0.00) %
Number of OF1 negative (neg) at day 10 ([3]; 50 mg/kg/d oral, 4 days of treatment, n = 6): (6 0F1 neg)
Parasitemia (%) at day 4 ([3]; 50 mg/kg/d oral, days 0-3): 0.00 (0.00 − 0.00) %
Parasitemia (%) at day 10 ([3]; 50 mg/kg/d oral, days 0-3): 0.00 (0.00 − 0.00) %
Parasitemia (%) at day 4 ([3]; 100 mg/kg/d oral, days 0-3): 0.00 (0.00 − 0.00) %
Parasitemia (%) at day 10 ([3]; 100 mg/kg/d oral, days 0-3): 0.00 (0.00 − 0.00) %
Development of erythrocytic forms of P. berghei [3, 9]: completely and permanently inhibited
Indications of toxicity [3, 9]: no observed indications of any toxicity

COc1cc(O)c(-c2c(C)cc(OC)c3c(OC)cccc23)c2c1[C@H](C)N[C@@H](C)C2 [Hamatine]
IC50 P. berghei, Anka [1]: 5.565 µg/mL (≈ 13.7 µM)
IC50 P. falciparum NF54 strain [2]: 3.338 µg/mL (≈ 8.19 µM)

COc1cc(C)cc2c(-c3c(O)cc(O)c4c3C[C@@H](C)N[C@@H]4C)cc(-c3cc(-c4c(O)cc(O)c5c4C[C@@H](C)N[C@@H]5C)c4cc(C)cc(OC)c4c3O)c(O)c12 [Michellamine A]
IC50 P. berghei, Anka [1]: >50 µg/mL
IC50 P. falciparum NF54 strain [2]: 46.957 µg/mL (≈ 62 µM)

COc1cccc2c(-c3ccc4c(c3O)C(C)N(C)C(C)C4)c(C)cc(OC)c12 (centres unmarked) [N-methyl-dioncophylline A]
IC50 P. berghei, Anka [1]: 9.207 µg/mL (≈ 23.5 µM)
IC50 P. falciparum NF54 strain [2]: 13.637 µg/mL (≈ 34.8 µM)
IC50 P. falciparum, K1 strain [4]: 5.749 µg/mL (≈ 14.7 µM)

Ancistrobrevine D
IC50 P. berghei, Anka [1]: 6.069 µg/mL
IC50 P. falciparum NF54 strain [2]: 12.222 µg/mL
IC50 P. falciparum, K1 strain [4]: 10.440 µg/mL

Dioncolactone A
IC50 P. berghei, Anka [1]: 0.598 µg/mL
IC50 P. falciparum NF54 strain [2]: 1.337 µg/mL

Dioncophylleine A
IC50 P. falciparum NF54 strain [2]: 21.295 µg/mL

Michellamine B
IC50 P. berghei, Anka [1]: >50 µg/mL
IC50 P. falciparum NF54 strain [2]: 20.185 µg/mL

N-formyl-O,O-dimethyl-dioncophylline C
IC50 P. falciparum NF54 strain [2]: >50 µg/mL

N-formyl-ancistrocladine
IC50 P. falciparum NF54 strain [2]: 8.129 µg/mL

N-formyl-dioncophylline C
IC50 P. falciparum NF54 strain [2]: 3.132 µg/mL

N-methyl-ancistrocladine
IC50 P. falciparum NF54 strain [2]: 0.491 µg/mL
